The values below come from patent US11034724B2, “Crystalline salt forms of Boc-D-Arg-DMT-Lys-(Boc)-Phe-NH2” (Stealth BioTherapeutics Corp., priority 2017, dated 2021).

≈ marks a conversion by molar mass, not a printed value. Where two headings read alike, the source gives them in different places. Non-standard residues stand in square brackets, D forms with d. Residues, ends and D or L forms follow the SMILES beside them. *: point of attachment. Dmt = Cc1cc(O)cc(C)c1C[C@H](N)C(=O)O; Boc = CC(C)(C)OC(=O)*

A word on the solubility: it is the dissolved amount per volume that the medium holds.

Assay type in all cases: physicochemical
Series [1] is described as follows: Gravimetric vapour sorption (GVS), hygroscopicity. Here is the method: Gravimetric Vapour Sorption (GVS)
Approximately 15 mg of sample was placed into a mesh vapour sorption balance pan and loaded into an IGASorp Moisture Sorption Analyser balance by Hiden Analytical. The sample was subjected to a ramping profile from 40-90% relative humidity (RH) at 10% increments, maintaining the sample at each step until a stable weight had been achieved (98% step completion). After completion of the sorption cycle, the sample was dried using the same procedure to 0% RH, then subjected to a second ramping profile from 0-90% relative humidity. After completion of the second sorption cycle, the sample was dried using the same procedure to 0% RH, and finally taken back to the starting point of 40% RH. The weight change during the sorption/desorption cycles were plotted, allowing for the hygroscopic nature of the sample to be determined.

Series [2] is described as follows: Approximate solubility assessment (solvent addition technique). The note with it: dichloromethane, 35° C. for dichloromethane, read-out: Approximate Solubility (50° C.).
Test in series [3]: as above
Here is the method:
Approximate Solubility Assessment of Boc-D-Arg-DMT-Lys(Boc)-Phe-NH2
The solubility screen was carried out as follows: • Approximately 20 mg of Boc-D-Arg-DMT-Lys(Boc)-Phe-NH2 was weighed out into each vial. • Each solvent/solvent mixture was added to the appropriate vial in 5 volume aliquots (100 μL). • In between additions, the sample was stirred at 50° C.
The solubility assessment was estimated by a solvent addition technique, heating at 50° C. between aliquots (see Table 9).

Consider `Cc1cc(O)cc(C)c1C[C@H](NC(=O)[C@@H](CCCNC(=N)N)NC(=O)OC(C)(C)C)C(=O)N[C@@H](CCCCNC(=O)OC(C)(C)C)C(=O)N[C@@H](Cc1ccccc1)C(N)=O` [Boc-D-Arg-DMT-Lys(Boc)-Phe-NH2] (Boc-[dR][Dmt]K(Boc)F-NH2), for which the “Mass increase by GVS” value in series [1] (between 40-90% RH, received, predominantly amorphous material) was “ca. 10%”. Moreover, the Hygroscopicity after crystallization result in series [1] (crystallized material compared with the amorphous input) was “did not show an improvement in terms of hygroscopicity”. The “Hygroscopicity by GVS analysis” value in series [1] (received, predominantly amorphous material) was “highly hygroscopic”. The solubility in series [2] is less than 10 mg/mL; in series [3] (2-butanol, solvent 2-Butanol, 50° C., read-out: Approximate Solubility (50° C.)) it was 17 mg/mL (≈ 20.2 mM); in series [3] (2-propanol, solvent 2-Propanol, 50° C., read-out: Approximate Solubility (50° C.)), 14 mg/mL (≈ 16.7 mM); in series [3] (2-propanol:water (50:50% v/v), solvent 2-propanol:water (50:50% v/v), 50° C., read-out: Approximate Solubility (50° C.)), roughly 100 mg/mL (≈ 119 mM); in series [3] (DMSO:acetone (50:50% v/v), solvent DMSO:acetone (50:50% v/v), 50° C., read-out: Approximate Solubility (50° C.)) it was no less than 200 mg/mL; in series [3] (DMSO:water (50:50% v/v), solvent DMSO:water (50:50% v/v), 50° C., read-out: Approximate Solubility (50° C.)), 24 mg/mL (≈ 28.6 mM). The solubility in series [3] (acetone, solvent Acetone, 50° C., read-out: Approximate Solubility (50° C.)) was less than 10 mg/mL; in series [3] (acetone:water (50:50% v/v), solvent Acetone:water (50:50% v/v), 50° C., read-out: Approximate Solubility (50° C.)) it was 58 mg/mL (≈ 69 mM); in series [3] (acetonitrile, solvent Acetonitrile, 50° C., read-out: Approximate Solubility (50° C.)), less than 10 mg/mL; in series [3] (acetonitrile:water (50:50% v/v), solvent Acetonitrile:water (50:50% v/v), 50° C., read-out: Approximate Solubility (50° C.)), no less than 200 mg/mL; in series [3] (all other solvent systems: acetone, dichloromethane, 2-butanol, 2-propanol, methyl ethyl ketone, toluene, THF, ethyl acetate, acetonitrile, read-out: Poor solubility), no more than 17 mg/mL; in series [3] (ethanol, solvent Ethanol, 50° C., read-out: Approximate Solubility (50° C.)), roughly 140 mg/mL (≈ 167 mM). In addition, the solubility is roughly 100 mg/mL (≈ 119 mM) in series [3] (ethanol:water (50:50% v/v), solvent Ethanol:water (50:50% v/v), 50° C., read-out: Approximate Solubility (50° C.)); less than 10 mg/mL in series [3] (ethyl acetate, solvent Ethyl acetate, 50° C., read-out: Approximate Solubility (50° C.)); 58 to 24 mg/mL in series [3] (in acetone:water (50:50 v/v), methanol:water (50:50 v/v) and DMSO:water (50:50 v/v), 50° C.); no less than 200 mg/mL in series [3] (methanol, solvent Methanol, 50° C., read-out: Approximate Solubility (50° C.)); 45 mg/mL (≈ 53.6 mM) in series [3] (methanol:water (50:50% v/v), solvent Methanol:water (50:50% v/v), 50° C., read-out: Approximate Solubility (50° C.)); less than 10 mg/mL in series [3] (methyl ethyl ketone, solvent Methyl ethyl ketone, 50° C., read-out: Approximate Solubility (50° C.)). The solubility is less than 10 mg/mL in series [3] (tetrahydrofuran, solvent Tetrahydrofuran, 50° C., read-out: Approximate Solubility (50° C.)); less than 10 mg/mL in series [3] (toluene, solvent Toluene, 50° C., read-out: Approximate Solubility (50° C.)); no less than 200 mg/mL in series [3] (trifluoroethanol, solvent Trifluoroethanol, 50° C., read-out: Approximate Solubility (50° C.)).
